Assay results from patent US20060167229A1, “Biologically active peptide conjugates” (priority 2002, published 2006).
Marks after values point to notes of the source that are not given here. Ends that are not written are not given here.

How the values were obtained:
L1210 leukemia = assay: Survival of mice with transplanted L1210 leukemia; format: in vivo, DBA/2 mice; details: for Survival days: saline 16.6 ± 5.6
Method: (§1) Intraperitoneal injection, once per day. […] Treatment of all groups with testing substance lasted for 30 days or until the animal died unless otherwise specified.
Stock L1210 cells were incubated in DMEM/F12 medium supplemented with 10% fetal bovine serum, 37° C./5% CO2 for 72 hrs, then washed 3-4 times with Hank's solution, and adjusted to […]. 0.1 ml of the cell suspension was implanted into the abdominal cavity of several healthy DBA mice for 6-8 days. The mice were then killed by cervical vertebra dislocation and their ascitic fluid collected aseptically. The cell concentration of the collected ascitic fluid was adjusted to 1×10^5 per ml with Hank's solution. 0.1 ml of the cell suspension was implanted into each of the testing animal and the survival data of the animals recorded. Treatment started in the testing animals as described in section Method 1. Mean survival day was obtained by the Kaplan-meier method in the Survival option of the SPSS software. If the animal survived longer than the experiment, the survival days was entered as the duration of the experiment. The survival index was calculated according to the following formula: Survival index=(mean survival days of treatment group−mean survival days of control group)÷mean survival days of control group 6. The Effect of Peptides on the Humoral Immunity of C57BL/6 Mice Bearing Transplanted B16 Melanoma and that on the Metastatic Potential of the Inoculated Melanoma Cells

NK cell = NK cell activity in mice with ascitic fluid type liver cancer H22; format: in vivo, BALB/c mice; details: saline 24.0 ± 8.2
Method: Healthy BALB/c mice were randomised into peptide group, rmIFN-γ group, rhIL-2 group, and saline group, 15 mice per group, and prepared into H22 carrying mice model as described in section Method 3. After implantation of the cancer cells, the test substances were administered for 15 days, the mice were killed by cervical dislocation. The spleen was isolated aseptically and manually dispersed in cold D-Hank's solution using an injection needle. The dispersed cell suspension was further sieved through a 100-gauge 150 μm diameter stainless steel sieve. After centrifugation at 200 g for 10 minutes, the supernatant was discarded. The cell pellet was re-suspended in 10 volume of Tris-NH4Cl buffer and then kept standing still for 10 minutes at room temperature. The suspended cells were collected by centrifugation at 150 g for 10 minutes. The cells were washed 2-4 times with cold D-Hank's solution by re-suspending and collecting by centrifugation with condition as described above. The washed cells were then diluted to the desired cell densities by RPMI-1640 culture medium, containing 10% fetal bovine serum.
Mice spleen cells were prepared to 4×10^6/ml as described in section 4.1 above. Target cells YAC-1 were brought to log phase and adjusted to 1×10^5/ml. Using a 96 wells cell culture plate, 100 μl mouse spleen cells and 100 μl culture medium were added to the control well containing only the spleen cells; 100 μl target cells and 100 μl culture medium were added to the control well containing only target cells; 100 μl mouse spleen cells and 100 μl target cells were added to the NK activity assay well. Three parallel sets of the above were prepared per mouse. After that, the 96 wells cell culture plates were incubated for 4 hrs at 37° C., 5% CO2.
Samples were centrifuged at 150 g for 10 minutes to collect the cells. The supernatant was discarded and 50 μl/well MTT of 1 mg/ml was added. The reaction-mixture was then shaken for 2 minutes, and incubated at 37° C., 5% CO2 for 4 hours. The supernatant was discarded after centrifugation at 150 g for 10 minutes. 120 μl 40 mM HCl-2-propanol was added and shaken for 3 minutes. An ELISA reader was used to obtain OD570 nm of each well referenced at 630 nm.
The NK cell activity index of each mouse was obtained by first deriving the average OD of the three parallel wells of each combination, then applying this average OD to the following formula: NK cell activity index=[1−(average OD of spleen and target cell well−average OD of spleen cell only well)÷(average OD of target cell only well)]×100% 5. The Effect of Peptides on the Survival of DBA/2 Mice with Transplanted L1210 Leukemia

mononuclear phagocyte = assay: Phagocytotic function of mononuclear phagocyte in mice with transplanted S180 sarcoma; format: in vivo, BALB/c mice; details: saline 5.38 ± 0.85
Method: as §1
(§2) Stock S180 sarcoma cells were incubated in DMEM/F12 medium supplemented with 10% fetal bovine serum, 37° C., 5% CO2 for 72 hrs, then washed 3-4 times with Hank's solution at room temperature. Adjust the cell concentration to 1-2×10^9 per litre with Hank's solution. […] The mice were killed by cervical vertebra dislocation. Vigorously growing and non-disrupted tumor masses were harvested and washed clean with sterile saline. The tissue was dispersed in saline to a homogenous cell suspension, in a ratio of 1 g tissue to 4 ml saline. The sarcoma bearing mice model was prepared with an injection of 0.2 ml cell suspension through the armpit. Administration of test substance treatment started as described in section Method 1.
2.1 The effect of peptides on the phagocytotic function of mononuclear phagocyte in mice with S180 sarcoma was analysed by injecting mice from the tail vein with 0.1 ml/10 g body weight of Indian ink (1:5 dilution with normal saline) on the second day after the last test substance administration. At one minute and five minutes after the injection, 20 μl blood was obtained from the eye canthus with heparinised tubing. The blood was mixed with 2 ml 0.1% w/v Na2CO3 and then OD680 nm obtained. The outline clear index K was calculated by the following formula: K=(lgA1−lgA2)÷(t2−t1)
After the phagocytosis index study, the mice were killed by cervical vertebra dislocation. The liver, spleen, and cancer tissue were dissected, blotted dry, and weighed. The phagocytosis index a was calculated as below: α=(^3√{square root over ( )}K)×(W÷WLS)

B16 melanoma = assay: Melanoma lung metastasis foci after inoculation of B16 melanoma cells; format: in vivo, C57BL/6 mice
Method: Intraperitoneal injection, once per day. […] Treatment of all groups with testing substance lasted for 30 days or until the animal died unless otherwise specified. […] The cell concentration was adjusted to 1×10^5 per ml with Hank's solution and 0.1 ml of the cell suspension was injected via the tail vein into the testing mice to generate the B16 melanoma bearing animal model. Treatment with test substance started as described in section Method 1. […] Postmortem Examination of the Animals was Performed. The Pathological Changes were Recorded, and the Numbers of Melanoma Lung Metastasis Foci Were Counted. Results

S180 sarcoma = assay: Growth of transplanted S180 sarcoma; format: in vivo, BALB/c mice; details: for Tumor weight: saline 1.29 ± 0.50
Method: as §1, §2
2.2 The Tumor Growth Inhibition Index was Calculated According to the Following Formula: Tumor growth inhibition index=(mean tumor weight of control group−mean tumor weight of treatment group)÷mean tumor weight of control group 3.

[1] = dose 0.5 μg/kg i.p. once per day
[2] = dose 500 μg/kg i.p. once per day
[3] = controls: IL-2, IFN-γ 3 × 10^5 IU/kg, cyclophosphamide 20 mg/kg

VGMGQKDSY
Survival index (%) (L1210 leukemia; [1]): 26.8% | Survival days (L1210 leukemia; [1]): 21.1 ± 5.8 days

Tyr Ser Leu (YSL; listed as Sus scrofa) [CMS024]
NK activity index (%) (NK cell; dose 0.5 μg/kg): 39.3 ± 18.7*^$ % | NK activity index (%) (NK cell; dose 5 μg/kg): 34.9 ± 12.1*^^$ % | NK activity index (%) (NK cell; dose 50 μg/kg): 43.6 ± 13.9*^^$& %

PTTKTYFPHF [CMS001]
Phagocytosis index (mononuclear phagocyte; dose 5 μg/kg i.p. once per day): 6.67 ± 0.43*^ | Phagocytosis index (mononuclear phagocyte; dose 50 μg/kg i.p. once per day): 6.24 ± 0.33*^

IGMESAGIHETTY [CMS016]
B16 metastatic foci in the lung, postmortem examination (B16 melanoma; 5 μg/kg/day): did not show any sign of existence of B16 metastatic foci in the lung | B16 metastatic foci in the lung, postmortem examination (B16 melanoma; 500 μg/kg/day): did not show any sign of existence of B16 metastatic foci in the lung

Pro Gln Asn Phe (PQNF; printed: Pro Gln Asn Phe) [CMS034]
Phagocytosis index (mononuclear phagocyte; [1]): 6.35 ± 1.02 | Phagocytosis index (mononuclear phagocyte; dose 5 μg/kg i.p. once per day): 6.20 ± 0.44*^ | Tumor inhibition index (%) (S180 sarcoma; [1]): 35.9% | Tumor weight (S180 sarcoma; [1]): 0.83 ± 0.48 g | NK activity index (%) (NK cell; dose 50 μg/kg): 57.3 ± 17.9*^^$& %

FNFVPP [CMS003]
NK activity index (%) (NK cell; dose 500 μg/kg): 37.9 ± 14.5*^^$ %

VAPEEHPTLLTEAPLNPK [CMS010]
Tumor inhibition index (%) (S180 sarcoma; [2]): 48.4% | Tumor weight (S180 sarcoma; [2]): 0.67 ± 0.35 g

Phe Val Asn Asp (FVND; listed as Sus scrofa) [CMS035]
Tumor inhibition index (%) (S180 sarcoma; dose 5 μg/kg i.p. once per day): 44.6% | Tumor weight (S180 sarcoma; dose 5 μg/kg i.p. once per day): 0.71 ± 0.37 g | Survival index (%) (L1210 leukemia; [1]): 76.1% | Survival days (L1210 leukemia; [1]): 29.3 ± 15.4 days

Phe Gln Gln Gln (FQQQ; printed: Phe Gln Gln Gln) [CMS032]
NK activity index (%) (NK cell; dose 5 μg/kg): 52.6 ± 12.5*^^$& % | NK activity index (%) (NK cell; dose 50 μg/kg): 41.0 ± 18.7*^^$& %

KAVGHLDDLPGAL [CMS008]
B16 metastatic foci in the lung, postmortem examination (B16 melanoma; 0.5 μg/kg/day): did not show any sign of existence of B16 metastatic foci in the lung | B16 metastatic foci in the lung, postmortem examination (B16 melanoma; 5 μg/kg/day): did not show any sign of existence of B16 metastatic foci in the lung | B16 metastatic foci in the lung, postmortem examination (B16 melanoma; 50 μg/kg/day): did not show any sign of existence of B16 metastatic foci in the lung

B1: IFN-γ: recombinant mouse IFN-γ (rmIFN-γ), Beijing Biotech Inc.; positive control (protein, UniProt P01580 23-155, looked up)
Interferon gamma: HGTVIESLESLNNYFNSSGIDVEEKSLFLDIWRNWQKDGDMKILQSQIISFYLRLFEVLKDNQAISNNISVIESHLITTFFSNSKAKKDAFMSIAKFEVNNPQVQRQAFNELIRVVHQLLPESSLRKRKRSRC
Phagocytosis index (mononuclear phagocyte; [3]): 5.45 ± 0.71 | Tumor inhibition index (%) (S180 sarcoma; [3]): 25.3% | Tumor weight (S180 sarcoma; [3]): 0.96 ± 0.45 g | NK activity index (%) (NK cell; [3]): 20.9 ± 3.3% | Survival days (L1210 leukemia; [3]): 15.6 ± 2.2 days
